Experimental data published in ChEMBL document CHEMBL6071133, “Discovery of novel penetrating peptides able to target human leukemia and lymphoma for enhanced PROTAC delivery” (Eur J Med Chem, 2024).
Calls of active or inactive are those of the source. The rule behind the calls is not given here.

Experiments:
[1] = Stability of the compound in fetal bovine serum assessed as parent compound remaining measured after 12 hrs by HPLC-MS analysis; type: ADME, cell-free, Bos taurus; conditions: cattle, read-out: Stability
[2] = Drug uptake in human KU812 cells assessed as membrane penetration by measuring increase in fluorescence intensity at 5 umol/L incubated for 2 hrs by flow cytometry relative to C9C; type: ADME, cell-based; conditions: ku812, 2 h, 5 µM, dose 5 µmol/L
[3] = Drug uptake in human K562 cells assessed as increase in fluorescence intensity at 5 umol/L pretreated with endocytosis inhibitor, nystatin for 0.5 hrs followed by incubation with compound for 2 hrs by FACS analysis; type: ADME, cell-based; conditions: k562, 2 h, 5 µM, dose 5 µmol/L
[4] = Drug uptake in human THP-1 cells assessed as increase in fluorescence intensity at 10 umol/L incubated for 2 hrs by cell imaging based fluorescence microscopic analysis; type: ADME; conditions: thp-1, 2 h, 10 µM, dose 10 µmol/L
[5] = system: K562; assay: Potentiation of IMA-PROTAC-induced cytotoxicity against human K562 cells assessed as inhibition of cell growth at compound: IMA-PROTAC concentration ratio of 5:1 incubated for 48 hrs in presence of 10 to 30 umo/L IMA-PROTAC by MTT assay relative to IMA-PROTAC; type: functional
[6] = Cytotoxicity against human CCRF-CEM cells assessed as cell viability at 0.01 to 100 uM incubated for 48 hrs by MTT assay; type: toxicity, cell-based; conditions: dose 0.01-100 µM, read-out: Activity
[7] = Drug uptake in human K562 cells assessed as increase in fluorescence intensity at 1 to 10 uM incubated for 2 hrs by flow cytometry; type: ADME, cell-based; conditions: k562, 2 h, dose 1-10 µM
[8] = Drug uptake in human K562 cells assessed as fluorescence intensity at 5 umol/L pretreated with endocytosis inhibitor, chlorpromazine for 0.5 hrs followed by incubation with compound for 2 hrs by FACS analysis; type: ADME, cell-based; conditions: k562, 2 h, 5 µM, dose 5 µmol/L
[9] = Drug uptake in human KU812 cells assessed as membrane permeability by measuring increase in fluorescence intensity at 5 umol/L incubated for 2 hrs by flow cytometry relative to THP-1 cells; type: ADME, cell-based; conditions: ku812, 2 h, 5 µM, dose 5 µmol/L
[10] = Drug uptake in human CCRF-CEM cells assessed as increase in fluorescence intensity at 1 to 10 uM incubated for 2 hrs by flow cytometry; type: ADME, cell-based; conditions: dose 1-10 µM
[11] = Cytotoxicity against human THP-1 cells assessed as cell viability at higher concentrations incubated for 48 hrs by MTT assay; type: toxicity, cell-based; conditions: read-out: Activity
[12] = Cytotoxicity against human K562 cells assessed as cell viability at 0.01 to 100 uM incubated for 48 hrs by MTT assay; type: toxicity, cell-based; conditions: dose 0.01-100 µM, read-out: Activity
[13] = Interaction with IMA-PROTAC assessed as induction of formation of micelle cluster with uniform and distinct spherical morphology by transmission electron microscopy; type: physicochemical
[14] = Drug uptake in human KU812 cells assessed as perinuclear distribution and colocalization with nucleus at 10 umol/L incubated for 2 hrs by confocal laser microscopy; type: ADME, cell-based; conditions: ku812, 2 h, 10 µM, dose 10 µmol/L
[15] = Drug uptake in human K562 cells assessed as fluorescence intensity at 5 umol/L pretreated with endocytosis inhibitor, methyl-beta-cyclodextrin for 0.5 hrs followed by incubation with compound for 2 hrs by FACS analysis; type: ADME, cell-based; conditions: k562, 2 h, 5 µM, dose 5 µmol/L
[16] = system: K562; assay: Induction of apoptosis in human K562 cells assessed as necrotic cells at PROTAC to compound concentration ratio of 1:5 incubated for 48 hrs in presence of 3 umol/L IMA-PROTAC by AnnexinV-FITC/PI staining based flow cytometry (reference value: 0.1%); type: functional
[17] = system: K562; assay: Increase in membrane permeability of IMA-PROTAC in human K562 cells assessed as potentiation of IMA-PROTAC-induced Bcr-Abl degradation at PROTAC to compound concentration ratio of 1:5 pretreated with proteasome inhibitor, MG132 and carfilzomib followed by incubation with compound for 48 hrs in presence of 3 umol/L IMA-PROTAC by western blot analysis; type: functional, cell-based
[18] = Drug uptake in human K562 cells assessed as membrane penetration by measuring increase in fluorescence intensity at 5 umol/L incubated for 2 hrs by flow cytometry relative to C9C; type: ADME, cell-based; conditions: k562, 2 h, 5 µM, dose 5 µmol/L
[19] = Interaction with IMA-PROTAC assessed as induction of assembly formation by transmission electron microscopy; type: physicochemical
[20] = Stability of the compound in fetal bovine serum assessed as parent compound remaining measured after 8 hrs by HPLC-MS analysis; type: ADME, cell-free, Bos taurus; conditions: cattle, read-out: Stability
[21] = Drug uptake in human K562 cells assessed as perinuclear distribution and colocalization with nucleus at 10 umol/L incubated for 2 hrs by confocal laser microscopy; type: ADME, cell-based; conditions: k562, 2 h, 10 µM, dose 10 µmol/L
[22] = system: K562; assay: Induction of cell cycle arrest in human K562 cells assessed as accumulation of cells at G2/M phase at PROTAC to compound concentration ratio of 1:5 incubated for 48 hrs in presence of 3 umol/L IMA-PROTAC by propidium iodide staining based flow cytometry; type: functional
[23] = Drug uptake in human KU812 cells assessed as increase in fluorescence intensity at 1 to 10 umol/L incubated for 2 hrs by cell imaging based fluorescence microscopic analysis; type: ADME; conditions: ku812, 2 h, dose 1-10 µmol/L
[24] = Drug uptake in human K562 cells assessed as increase in fluorescence intensity at 5 umol/L measured for 5 to 240 mins by flow cytometry; type: ADME, cell-based; conditions: k562, 5 µM, TDE = time-dependent effect, time 5-240 min, dose 5 µmol/L
[25] = Cytotoxicity against human KU812 cells assessed as cell viability at 0.01 to 100 uM incubated for 48 hrs by MTT assay; type: toxicity, cell-based; conditions: dose 0.01-100 µM, read-out: Activity
[26] = Drug uptake in human CCRF-CEM cells assessed as increase in fluorescence intensity at 1 to 10 umol/L incubated for 2 hrs by cell imaging based fluorescence microscopic analysis; type: ADME; conditions: dose 1-10 µmol/L
[27] = system: K562; assay: Induction of apoptosis in human K562 cells assessed as early apoptotic cells at PROTAC to compound concentration ratio of 1:5 incubated for 48 hrs in presence of 3 umol/L IMA-PROTAC by AnnexinV-FITC/PI staining based flow cytometry (reference value: 0.03%); type: functional
[28] = system: K562; assay: Induction of apoptosis in human K562 cells assessed as viable cells at PROTAC to compound concentration ratio of 1:5 incubated for 48 hrs in presence of 3 umol/L IMA-PROTAC by AnnexinV-FITC/PI staining based flow cytometry (reference value: 99.85%); type: functional
[29] = system: K562; assay: Increase in membrane permeability of IMA-PROTAC in human K562 cells assessed as potentiation of IMA-PROTAC-induced inhibition of STAT5 phosphorylation at PROTAC to compound concentration ratio of 1:3 incubated for 48 hrs in presence of 3 umol/L IMA-PROTAC by western blot analysis; type: functional, cell-based
[30] = Drug uptake in human K562 cells assessed as fluorescence intensity at 5 umol/L pretreated with endocytosis inhibitor, chloroquine for 0.5 hrs followed by incubation with compound for 2 hrs by FACS analysis; type: ADME, cell-based; conditions: k562, 2 h, 5 µM, dose 5 µmol/L
[31] = Drug uptake in human K562 cells assessed as increase in fluorescence intensity at 1 to 10 umol/L incubated for 2 hrs by cell imaging based fluorescence microscopic analysis; type: ADME; conditions: k562, 2 h, dose 1-10 µmol/L
[32] = system: K562; assay: Induction of apoptosis in human K562 cells assessed as late apoptotic cells at PROTAC to compound concentration ratio of 1:5 incubated for 48 hrs in presence of 3 umol/L IMA-PROTAC by AnnexinV-FITC/PI staining based flow cytometry (reference value: 0.01%); type: functional

remaining at 12 h [1]: 80%
fold change (FC) [2]: 4.45
Drug uptake [3]: Active
Drug uptake [4]: Active
Drug uptake [7]: Dose-Dependent Effect
Drug uptake [8]: Not Active
fold change (FC) [9]: 4
Drug uptake [10]: Dose-Dependent Effect
Activity [13]: Not Active
Drug uptake [14]: Active
Drug uptake [15]: Not Active
fold change (FC) [18]: 4.03
Activity [19]: Not Active
remaining at 8 h [20]: 100%
Drug uptake [21]: Active
Drug uptake [23]: Active
Drug uptake [24]: Tde
Drug uptake [26]: Active
Drug uptake [30]: Not Active
Drug uptake [31]: Active
SMILES: CC(C)C[C@H](NC(=O)[C@H](Cc1csc2ccccc12)NC(=O)[C@@H](Cc1ccccc1)NC(=O)[C@H](Cc1ccccc1)NC(=O)CNC(=O)[C@@H](N)CS)C(=O)N[C@@H](CCCNC(=N)N)C(=O)N[C@@H](CO)C(=O)N[C@@H](CS)C(=O)O
inhibition (INH) [5]: 20%
viability at 48 h, up to 100 µM [6]: > 75%
viability at 48 h [11]: > 75%
viability at 48 h, up to 100 µM [12]: > 75%
Activity [16]: 0%
Activity [17]: inactive
Activity [22]: Active
viability at 48 h, up to 100 µM [25]: > 75%
Activity [27]: 22.82%
Activity [28]: 63.19%
Activity [29]: Active
Activity [32]: 13.98%
